In patent US11471460B2, “Autophagy modulators for use in treating cancer” (The United States of America,as represented by the …, priority 2017, dated 2022):

Tests used:
lysosomes in U2OS cells = assay: Ratiometric analysis of lysosomal pH (Oregon Green 488 dextran); assay type: cell-based, human; details: 1 μM
Experimental: U2OS cells were cultured for 4 hr with vehicle, 1 μM compound 1, or 50 mM ammonium chloride. The results of two independent experiments were averaged together. Data were analyzed by one-way ANOVA (p=0.0005) and Tukey's post-hoc test (p<0.0001). Scale bars indicate 10 μm. The results of three independent experiments were averaged together. […] Cells that had been transfected with LAMP1-RFP expression vector were then stained with LysoSensor Green DND-189, a fluorescent probe that fluoresces only in the acidic compartments of live cells. […] Bars represent 20 μm.
To determine the pH of individual lysosomes, dual-wavelength ratio imaging was conducted as previously describe (102), with minor modifications. U2OS and RAW264.7 cells were cultured in imaging chambers (Cellvis, Mountain View Calif., Cat #C4-1.5/h-N) in complete culture medium at 37° C. and 5% CO2. Cells were incubated overnight with 50 μg/mL Oregon Green 488 dextran (Invitrogen, Carlsbad, Calif., D7170). The following day, the cells were cultured with dextran-free complete culture medium for at least 2 h to ensure lysosomal targeting of the probe. Cells were then cultured with compound 1 for the indicated times and concentrations. […]

[1] = system: cathepsin D (CTSD) in U2OS cells; assay: Cathepsin D maturation, Western immuno-blotting; assay type: cell-based, human; details: 4 h
Experimental: Mature and immature cathepsin D (CTSD), LC3-I, LC3-II, and β-actin proteins were identified by Western immuno-blotting, under the same conditions, and detected with specific antibodies and by co-fractionation with molecular mass markers (kDa). Cathepsin D maturation via proteolysis requires acidity.
Total cell lysates were prepared (in 4× dye). Proteins were fractionated at 200V in a NuPAGE 4-12% bis-tris polyacrylamide gel (NP0323, Novex) using NuPAGE MES running buffer (NP0002, Novex) and then stained with PageBlue (24260, Thermo Scientific) in order to quantify the relative amount of histones in each sample. […] Proteins were wet-transferred onto nitrocellulose membranes (162-0112, Bio-Rad) using NuPAGE transfer buffer (NP-0006-1, Novex) for 1 hour at 30V. Membranes were then stained with dilute Ponceau S solution, blocked in 5% milk for 30 minutes at room temperature, and incubated overnight at 4° C. in primary antibody. Membranes were washed with phosphate buffered saline with tween 20 (PBST) three times for 10 min. each, incubated with secondary antibodies in 5% milk for 1 hour, washed three times with PBST again, covered in ECL (SuperSignal West Pico chemiluminescent substrate, 34080, Thermo Scientific) and exposed to film (HyBlot ES, E3218, Denville Scientific).

U2OS cells [2] = assay: Tandem sensor RFP-GFP-LC3B: fraction of yellow (neutral pH) puncta; assay type: cell-based, human; details: 1 μM, 4 hrs
Experimental: Confocal microscopic images are shown in FIG. 12A of U2OS cells expressing a modified tandem sensor RFP-GFP-tagged LC3B protein in which the green signal from a mutated GFP was suppressed in an acidic environment, with little or no effect on the red signal from RFP. Thus, autophagosomes with neutral pH would fluoresce yellow, whereas autolysosomes with acidic pH would fluoresce red. These cells were treated with either vehicle or 1 μM compound 1 for 4 hrs. The fraction of yellow puncta, representing autophagosomes with a neutral pH, was quantified in 50 cells from each of three independent experiments (mean±SEM; Student's t-test, p<0.0001) as shown in FIG. 12B. The fraction of yellow puncta increased 4-fold in the presence of compound 1 (right side graph).
To determine whether the accumulation of autophagosomes resulted from induction of autophagy or from disruption of autophagic flux, cells were transfected with a vector expressing a modified tandem sensor RFP-GFP-tagged LC3B protein in which the green signal from a mutated GFP was suppressed in an acidic environment, with little or no effect on the red signal from RFP^41. Therefore, in merged images, only red puncta indicated acidic autolysosomes; yellow puncta indicated either autophagosomes or non-acidic autolysosomes. […]

U2OS cells [3] = assay: GFP-LC3 / LAMP1-RFP co-localization (autolysosome formation); assay type: cell-based, human; details: compound 1 or rapamycin and compound 1, 4 hours
Experimental: Confocal microscopic images are shown in FIG. 13A of U2OS cells that were co-transfected with a GFP-LC3B expression vector to label autophagosomes green and a LAMP1-RFP expression vector to label lysosomes red. Cells were then treated for 4 hrs with 1 μM rapamycin to induce autophagy, or with 1 μM compound 1 to disrupt autophagy, or with both 1 μM rapamycin and 1 μM compound 1. Cells were then fixed and viewed by confocal microscopy. Nuclei were stained with DAPI. […] The mean±SEM results from 50 cells is given for two independent experiments.
To determine whether or not the absence of an acidic environment resulted from failure of lysosomes to fuse with autophagosomes, cells were transfected with both GFP-LC3 and LAMP1-RFP expression vectors, and then cultured for 4 hours in the presence of vehicle, rapamycin, or both rapamycin and compound 1 (FIG. 13). Rapamycin is an established inducer of autophagy (42, 43). As expected, rapamycin induced accumulation of GFP-LC3 labeled autophagosomes (green), some of which were autolysosomes, as shown by co-localization with LAMP1-RFP on control cells. In contrast, GFP-LC3 and LAMP1-RFP labeled different populations of vesicles in cells cultured with either compound 1 or rapamycin and compound 1, despite the fact that the density of autophagosomes was at least 3-fold greater.

[4] = system: breast adenocarcinoma cells; assay: Viability of breast adenocarcinoma cells; assay type: cell-based; details: Homo sapiens; breast adenocarcinoma cells; read-out: EC50
Experimental: FIG. 18 summarizes results from 13 human cell lines. All cells were seeded at the same cell density in a rich culture medium and assayed under identical conditions. Compound 1 efficacy is the ratio of cell viability with compound 1 to cell viability with chloroquine derivatives.

melanoma A375 cells = assay: Cytoplasmic vacuolization of A375 cells; assay type: cell-based, human
melanoma A375 tumors = assay: Vacuolation and autophagy markers within tumors of treated mice; assay type: in vivo
Description: Cytoplasmic vacuolation was clear in tumors from compound 1-treated mice, and the extent of vacuolation was clearly greater at with greater concentrations of compound 1.
To determine whether or not compound 1 injected intraperitoneally was active within the tumor, tumor slices were stained with hematoxylin and eosin to visualize cellular structure.

`C1=Nc2ccccc2/C1=C/NNc1nc(Nc2ccccc2)nc(N2CCOCC2)n1` [compound 1] was tested, and the “Mean pH of lysosomes” value (lysosomes in U2OS cells; 4 h, untreated cells 5.3) was 5.0, the “Effect on lysosomal acidity” value (lysosomes in U2OS cells; 4 hours) was “did not affect lysosomal acidity significantly” and the “Cellular level of mature cathepsin D relative to vehicle treated cells” value [1] was “about 50%”. For the same compound, the “Increase in fraction of yellow puncta” value (U2OS cells [2]) was 4 fold, the “Puncta that were yellow in merged images” value (U2OS cells [2]) was “at least 80%” and the “Density of autophagosomes relative to rapamycin alone” value (U2OS cells [3]) was “at least 3 fold”. For the same compound, the EC50 [4] was over 10 µM, the “Cytoplasmic vacuolization of A375 cells” value (melanoma A375 cells) was “induced extensive cytoplasmic vacuolization” and the “LC3-II and p62 proteins in tumor lysates” value (melanoma A375 tumors; Western blot) was “increased levels of LC3-H and p62 proteins”. The “Cytoplasmic vacuolation in tumor slices” value (melanoma A375 tumors; hematoxylin and eosin) was “clearly evident”.
